How the values were obtained:
[1] = system: ragweed; test: Test A preemergence; assay type: in vivo, Ambrosia elatior
In short: (§1)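 Compounds in non-phytotoxic solvent with surfactant applied as soil spray preemergence, or postemergence to plants 2-10 cm at one- to two-leaf stage, in loam/sand. After approximately 10 days in greenhouse, injury rated visually versus untreated controls, 0 (no effect) to 100 (complete control).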

[2] = system: pigweed; test: Test A postemergence; assay type: in vivo, Amaranthus retroflexus
In short: as §1

[3] = system: barnyardgrass; test: Test A postemergence; assay type: in vivo, Echinochloa crus-galli
In short: as §1

[4] = system: kochia; test: Test A preemergence; assay type: in vivo, Kochia scoparia
In short: as §1

[5] = system: rice; test: Test B flooded paddy test; assay type: in vivo, Oryza sativa; settings: Flood, 250 g ai/ha; 0 to 100 scale where 0 is no effect and 100 is complete control
In short: (§2)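 Compound added straight to paddy water, with pots kept flooded 3 cm above soil, on plants grown to the 2-leaf stage. Visual scoring 0-100 (100 = complete control) against untreated controls after 13 to 15 greenhouse days.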

[6] = system: corn; test: Test A postemergence; assay type: in vivo, Zea mays
In short: as §1

[7] = system: blackgrass; test: Test A postemergence; assay type: in vivo, Alopecurus myosuroides
In short: as §1

[8] = system: barnyardgrass; test: Test A preemergence; assay type: in vivo, Echinochloa crus-galli
In short: as §1

[9] = system: Italian ryegrass; test: Test A postemergence; assay type: in vivo, Lolium multiflorum
In short: as §1

[10] = system: ragweed; test: Test A postemergence; assay type: in vivo, Ambrosia elatior
In short: as §1

[11] = system: sedge, umbrella; test: Test B flooded paddy test; assay type: in vivo, Cyperus difformis; settings: Flood, 250 g ai/ha; 0 to 100 scale where 0 is no effect and 100 is complete control
In short: as §2

[12] = system: giant foxtail; test: Test A postemergence; assay type: in vivo, Setaria faberii
In short: as §1

[13] = system: barnyardgrass; test: Test B flooded paddy test; assay type: in vivo, Echinochloa crus-galli; settings: Flood, 250 g ai/ha; 0 to 100 scale where 0 is no effect and 100 is complete control
In short: as §2

[14] = system: giant foxtail; test: Test A preemergence; assay type: in vivo, Setaria faberii
In short: as §1

[15] = system: Italian ryegrass; test: Test A preemergence; assay type: in vivo, Lolium multiflorum
In short: as §1

[16] = system: wheat; test: Test A postemergence; assay type: in vivo, Triticum aestivum
In short: as §1

[17] = system: pigweed; test: Test A preemergence; assay type: in vivo, Amaranthus retroflexus
In short: as §1

[18] = system: Heteranthera limosa; test: Test B flooded paddy test; assay type: in vivo; settings: Flood, 250 g ai/ha; 0 to 100 scale where 0 is no effect and 100 is complete control
In short: as §2

[19] = system: galium; test: Test A postemergence; assay type: in vivo, Galium aparine
In short: as §1

[20] = system: kochia; test: Test A postemergence; assay type: in vivo, Kochia scoparia
In short: as §1

[21] = 31 g ai/ha, 0 to 100 scale where 0 is no effect and 100 is complete control, visual, approximately 10 days
[22] = 31 g ai/ha, 0 to 100 scale, 0 no effect, 100 complete control
[23] = 125 g ai/ha, 0 to 100 scale, 0 no effect, 100 complete control
[24] = 125 g ai/ha, 0 to 100 scale where 0 is no effect and 100 is complete control
[25] = 500 g ai/ha, 0 to 100 scale where 0 is no effect and 100 is complete control
[26] = 1000 g ai/ha, 0 to 100 scale, 0 no effect, 100 complete control, approx. 10 days
[27] = 1000 g ai/ha, 0 to 100 scale, 0 no effect, 100 complete control

FCc1cccc(Oc2ncc(Br)cn2)c1-n1cc(I)cn1 [Compound 244]
Plant response rating, Ragweed [1, 21]: 0 | Ragweed plant response rating (0 to 100 scale) ([1]; 125 g ai/ha): 0 | Plant response rating, Pigweed [2, 22]: 20 | Plant response rating, Pigweed [2, 23]: 100 | Plant response rating, Barnyardgrass [3, 22]: 0 | Plant response rating, Barnyardgrass [3, 23]: 10 | Plant response rating, Kochia [4, 21]: 0 | Kochia plant response rating (0 to 100 scale) ([4]; 125 g ai/ha): 40 | Plant response rating, Rice [5]: 0 | Plant response rating, Corn [6, 22]: 0 | Plant response rating, Corn [6, 23]: 20 | Plant response rating, Blackgrass [7, 22]: 0 | Plant response rating, Blackgrass [7, 23]: 30 | Plant response rating, Barnyardgrass [8, 21]: 0 | Barnyardgrass plant response rating (0 to 100 scale, 0 is no effect, 100 is complete control) ([8]; 125 g ai/ha): 20 | Plant response rating, Ryegrass, Italian [9, 22]: 0 | Plant response rating, Ryegrass, Italian [9, 23]: 0 | Plant response rating, Ragweed [10, 22]: 0 | Plant response rating, Ragweed [10, 23]: 0 | Plant response rating, Sedge, Umbrella [11]: 0 | Plant response rating, Foxtail, Giant [12, 22]: 0 | Plant response rating, Foxtail, Giant [12, 23]: 10 | Plant response rating, Barnyardgrass [13]: 0 | Plant response rating, Foxtail, Giant [14, 21]: 0 | Foxtail, Giant plant response rating (0 to 100 scale) ([14]; 125 g ai/ha): 80 | Plant response rating, Ryegrass, Italian [15, 21]: 0 | Ryegrass, Italian plant response rating (0 to 100 scale) ([15]; 125 g ai/ha): 0 | Plant response rating, Wheat [16, 22]: 0 | Plant response rating, Wheat [16, 23]: 20 | Plant response rating, Pigweed [17, 21]: 0 | Pigweed plant response rating (0 to 100 scale) ([17]; 125 g ai/ha): 100 | Plant response rating, Ducksalad [18]: 40 | Plant response rating, Galium [19, 22]: 70 | Plant response rating, Galium [19, 23]: 100 | Plant response rating, Kochia [20, 22]: 20 | Plant response rating, Kochia [20, 23]: 80

CC(C)c1cnc(Oc2cccc(C#N)c2-n2cc(Br)cn2)nc1 [Compound 130]
Plant response rating, Ragweed [1, 24]: 0 | Ragweed plant response rating [1, 25]: 0 | Pigweed plant response rating [2, 24]: 0 | Plant response rating, Pigweed [2, 25]: 0 | Barnyardgrass plant response rating [3, 24]: 0 | Plant response rating, Barnyardgrass [3, 25]: 0 | Plant response rating, Kochia [4, 24]: 0 | Kochia plant response rating [4, 25]: 0 | Plant response rating, Rice [5]: 0 | Corn plant response rating [6, 24]: 0 | Plant response rating, Corn [6, 25]: 0 | Blackgrass plant response rating [7, 24]: 0 | Plant response rating, Blackgrass [7, 25]: 0 | Plant response rating, Barnyardgrass [8, 24]: 0 | Barnyardgrass plant response rating [8, 25]: 0 | Ryegrass, Italian plant response rating [9, 24]: 0 | Plant response rating, Ryegrass, Italian [9, 25]: 0 | Ragweed plant response rating [10, 24]: 0 | Plant response rating, Ragweed [10, 25]: 0 | Plant response rating, Sedge, Umbrella [11]: 0 | Foxtail, Giant plant response rating [12, 24]: 0 | Plant response rating, Foxtail, Giant [12, 25]: 0 | Plant response rating, Barnyardgrass [13]: 0 | Plant response rating, Foxtail, Giant [14, 24]: 0 | Foxtail, Giant plant response rating [14, 25]: 0 | Plant response rating, Ryegrass, Italian [15, 24]: 0 | Ryegrass, Italian plant response rating [15, 25]: 0 | Wheat plant response rating [16, 24]: 0 | Plant response rating, Wheat [16, 25]: 0 | Plant response rating, Pigweed [17, 24]: 0 | Pigweed plant response rating [17, 25]: 0 | Plant response rating, Ducksalad [18]: 0 | Galium plant response rating [19, 24]: 0 | Plant response rating, Galium [19, 25]: 0 | Kochia plant response rating [20, 24]: 0 | Plant response rating, Kochia [20, 25]: 0

N#Cc1cnn(-c2c(Cl)cccc2Oc2ncc(Cl)cn2)c1 [Compound 144]
Plant response rating, Ragweed [1, 21]: 0 | Plant response rating, Ragweed [1, 24]: 100 | Plant response rating, Pigweed [2, 22]: 80 | Pigweed plant response rating [2, 24]: 100 | Plant response rating, Barnyardgrass [3, 22]: 20 | Barnyardgrass plant response rating [3, 24]: 90 | Plant response rating, Kochia [4, 21]: 70 | Plant response rating, Kochia [4, 24]: 100 | Plant response rating, Rice [5]: 0 | Plant response rating, Corn [6, 22]: 20 | Corn plant response rating [6, 24]: 40 | Plant response rating, Blackgrass [7, 22]: 20 | Blackgrass plant response rating [7, 24]: 90 | Plant response rating, Barnyardgrass [8, 21]: 20 | Plant response rating, Barnyardgrass [8, 24]: 90 | Plant response rating, Ryegrass, Italian [9, 22]: 0 | Ryegrass, Italian plant response rating [9, 24]: 50 | Plant response rating, Ragweed [10, 22]: 20 | Ragweed plant response rating [10, 24]: 80 | Plant response rating, Sedge, Umbrella [11]: 80 | Plant response rating, Foxtail, Giant [12, 22]: 20 | Foxtail, Giant plant response rating [12, 24]: 100 | Plant response rating, Barnyardgrass [13]: 0 | Plant response rating, Foxtail, Giant [14, 21]: 70 | Plant response rating, Foxtail, Giant [14, 24]: 100 | Plant response rating, Ryegrass, Italian [15, 21]: 20 | Plant response rating, Ryegrass, Italian [15, 24]: 20 | Plant response rating, Wheat [16, 22]: 20 | Wheat plant response rating [16, 24]: 20 | Plant response rating, Pigweed [17, 21]: 90 | Plant response rating, Pigweed [17, 24]: 100 | Plant response rating, Ducksalad [18]: 95 | Plant response rating, Galium [19, 22]: 80 | Galium plant response rating [19, 24]: 90 | Plant response rating, Kochia [20, 22]: 50 | Kochia plant response rating [20, 24]: 100

NS(=O)(=O)c1cnn(-c2ccccc2Oc2ncc(Cl)cn2)c1 [Compound 282]
Ragweed plant response rating [1, 26]: 100 | Plant response rating, Pigweed [2, 27]: 80 | Plant response rating, Barnyardgrass [3, 27]: 90 | Kochia plant response rating [4, 26]: 100 | Plant response rating, Rice [5]: 0 | Plant response rating, Corn [6, 27]: 50 | Plant response rating, Blackgrass [7, 27]: 100 | Barnyardgrass plant response rating [8, 26]: 90 | Plant response rating, Ryegrass, Italian [9, 27]: 80 | Plant response rating, Ragweed [10, 27]: 100 | Plant response rating, Sedge, Umbrella [11]: 0 | Plant response rating, Foxtail, Giant [12, 27]: 60 | Plant response rating, Barnyardgrass [13]: 0 | Foxtail, Giant plant response rating [14, 26]: 100 | Ryegrass, Italian plant response rating [15, 26]: 50 | Plant response rating, Wheat [16, 27]: 0 | Pigweed plant response rating [17, 26]: 100 | Plant response rating, Ducksalad [18]: 0 | Plant response rating, Galium [19, 27]: 30 | Plant response rating, Kochia [20, 27]: 90
